ChEMBL document CHEMBL1201862, “PubChem BioAssay data set” (2004)
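Five concentrations, 48 hours, 96-well plates. At the GI50, growth is halved.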 Activity calls are given as the source filed them. Cut-off read from the data, not from the text of the source: active = GI50 up to about 1.1 µM and inactive = higher.

Legend:
Assay in all cases: DTP human tumour cell line panel, 48 h
786-0 = tested on: 786-0
A498 = tested on: A498
A549 = tested on: A549
ACHN = tested on: ACHN
BT-549 = tested on: BT-549
CAKI-1 = tested on: CAKI-1
CCRF-CEM = tested on: CCRF-CEM
COLO 205 = tested on: COLO 205
DU-145 = tested on: DU-145
EKVX = tested on: EKVX
HCC 2998 = tested on: HCC 2998
HCT-116 = tested on: HCT-116
HCT-15 = tested on: HCT-15
HL-60 = tested on: HL-60
HOP-62 = tested on: HOP-62
HOP-92 = tested on: HOP-92
HT-29 = tested on: HT-29
Hs-578T = tested on: Hs-578T
IGROV-1 = tested on: IGROV-1
K562 = tested on: K562
KM12 = tested on: KM12
LOX IMVI = tested on: LOX IMVI
M14 = tested on: M14
MCF7 = tested on: MCF7
MDA-MB-231 = tested on: MDA-MB-231
MDA-MB-435 = tested on: MDA-MB-435
MDA-N = tested on: MDA-N
MOLT-4 = tested on: MOLT-4
NCI-H226 = tested on: NCI-H226
NCI-H23 = tested on: NCI-H23
NCI-H460 = tested on: NCI-H460
NCI-H522 = tested on: NCI-H522
NCI/ADR-RES = tested on: NCI/ADR-RES
OVCAR-3 = tested on: OVCAR-3
OVCAR-4 = tested on: OVCAR-4
OVCAR-5 = tested on: OVCAR-5
OVCAR-8 = tested on: OVCAR-8
PC-3 = tested on: PC-3
RPMI-8226 = tested on: RPMI-8226
RXF 393 = tested on: RXF 393
SF-268 = tested on: SF-268
SF-295 = tested on: SF-295
SF-539 = tested on: SF-539
SK-MEL-28 = tested on: SK-MEL-28
SK-MEL-2 = tested on: SK-MEL-2
SK-MEL-5 = tested on: SK-MEL-5
SK-OV-3 = tested on: SK-OV-3
SN12C = tested on: SN12C
SNB-19 = tested on: SNB-19
SNB-75 = tested on: SNB-75
SR = tested on: SR
SW-620 = tested on: SW-620
T47D = tested on: T47D
TK-10 = tested on: TK-10
U-251 = tested on: U-251
UACC-257 = tested on: UACC-257
UACC-62 = tested on: UACC-62
UO-31 = tested on: UO-31
Malme-3M = tested on: Malme-3M

For CCc1nc(N)nc(N)c1-c1ccc(Cl)c(/N=N/N(C)C)c1, the GI50 (786-0) was 35 µM (inactive), the GI50 (A498) was 52 µM (inactive) and the GI50 (A549) was 17.2 µM (inactive). For the same molecule, the GI50 (ACHN) was 28.6 µM (inactive), the GI50 (BT-549) was 30.1 µM (inactive) and the GI50 (CAKI-1) was 36.1 µM (inactive). The GI50 (CCRF-CEM) was 27 µM (inactive), the GI50 (COLO 205) was 24.1 µM (inactive) and the GI50 (DU-145) was 55.7 µM (inactive). For the same molecule, the GI50 (EKVX) was 32.7 µM (inactive), the GI50 (HCC 2998) was 23.7 µM (inactive) and the GI50 (HCT-116) was 15.4 µM (inactive). The GI50 (HCT-15) was 17.1 µM, the GI50 (HL-60) was 20.8 µM (inactive) and the GI50 (HOP-62) was 23.2 µM (inactive). For the same molecule, the GI50 (HOP-92) was 47.8 µM (inactive), the GI50 (HT-29) was 18.7 µM (inactive) and the GI50 (Hs-578T) was 30.3 µM (inactive). For the same molecule, the GI50 (IGROV-1) was 24.1 µM (inactive), the GI50 (K562) was 8.04 µM (inactive) and the GI50 (KM12) was 28.4 µM (inactive). For the same molecule, the GI50 (LOX IMVI) was 24.5 µM (inactive), the GI50 (M14) was 22.5 µM (inactive) and the GI50 (MCF7) was 37.7 µM (inactive). The GI50 (MDA-MB-231) was 48.8 µM (inactive), the GI50 (MDA-MB-435) was 27.9 µM (inactive) and the GI50 (MDA-N) was 36 µM (inactive). The GI50 (MOLT-4) was 26.5 µM (inactive), the GI50 (NCI-H226) was 59.6 µM (inactive) and the GI50 (NCI-H23) was 27.4 µM (inactive). For the same molecule, the GI50 (NCI-H460) was 6.59 µM (inactive), the GI50 (NCI-H522) was 27.7 µM (inactive) and the GI50 (NCI/ADR-RES) was 23.8 µM (inactive). The GI50 (OVCAR-3) was 37.6 µM (inactive), the GI50 (OVCAR-4) was 25.1 µM (inactive) and the GI50 (OVCAR-5) was > 82 µM (inactive). For the same molecule, the GI50 (OVCAR-8) was 40.5 µM (inactive), the GI50 (PC-3) was 24.5 µM (inactive) and the GI50 (RPMI-8226) was 19 µM (inactive). The GI50 (RXF 393) was 41.4 µM (inactive), the GI50 (SF-268) was 49.2 µM (inactive) and the GI50 (SF-295) was 26.5 µM (inactive). For the same molecule, the GI50 (SF-539) was 23.1 µM (inactive), the GI50 (SK-MEL-28) was 29.1 µM (inactive) and the GI50 (SK-MEL-2) was 32.2 µM (inactive). The GI50 (SK-MEL-5) was 20.7 µM (inactive), the GI50 (SK-OV-3) was > 89.3 µM (inactive) and the GI50 (SN12C) was 67.8 µM (inactive). For the same molecule, the GI50 (SNB-19) was 44.4 µM (inactive), the GI50 (SNB-75) was 61 µM (inactive) and the GI50 (SR) was 19.1 µM (inactive). The GI50 (SW-620) was 27.4 µM (inactive), the GI50 (T47D) was 39.7 µM (inactive) and the GI50 (TK-10) was > 100 µM (inactive). The GI50 (U-251) was 34.5 µM (inactive), the GI50 (UACC-257) was 29.4 µM (inactive) and the GI50 (UACC-62) was 24.9 µM (inactive). The GI50 (UO-31) was 18.4 µM (inactive).
Cc1ccc(-n2c(O)c(C#N)c3[nH]nc(N)c3c2=O)cc1 was tested, and the GI50 (786-0) was > 100 µM (inactive), the GI50 (A498) was > 100 µM (inactive) and the GI50 (A549) was > 100 µM (inactive). The GI50 (BT-549) was > 100 µM (inactive), the GI50 (CAKI-1) was > 100 µM (inactive) and the GI50 (CCRF-CEM) was > 100 µM (inactive). The GI50 (COLO 205) was > 100 µM (inactive), the GI50 (DU-145) was > 100 µM (inactive) and the GI50 (EKVX) was > 100 µM (inactive). For the same molecule, the GI50 (HCC 2998) was > 100 µM (inactive), the GI50 (HCT-116) was > 100 µM (inactive) and the GI50 (HCT-15) was > 100 µM. For the same molecule, the GI50 (HL-60) was > 100 µM (inactive), the GI50 (HT-29) was > 100 µM (inactive) and the GI50 (Hs-578T) was > 100 µM (inactive). For the same molecule, the GI50 (IGROV-1) was > 100 µM (inactive), the GI50 (K562) was > 100 µM (inactive) and the GI50 (KM12) was > 100 µM (inactive). The GI50 (LOX IMVI) was > 100 µM (inactive), the GI50 (M14) was > 100 µM (inactive) and the GI50 (MCF7) was > 100 µM (inactive). For the same molecule, the GI50 (MDA-MB-231) was > 100 µM (inactive), the GI50 (MDA-MB-435) was > 100 µM (inactive) and the GI50 (MDA-N) was > 100 µM (inactive). For the same molecule, the GI50 (MOLT-4) was > 100 µM (inactive), the GI50 (Malme-3M) was > 100 µM (inactive) and the GI50 (NCI-H226) was > 100 µM (inactive). For the same molecule, the GI50 (NCI-H23) was > 100 µM (inactive), the GI50 (NCI-H460) was > 100 µM (inactive) and the GI50 (NCI-H522) was > 100 µM (inactive). The GI50 (NCI/ADR-RES) was > 100 µM (inactive), the GI50 (OVCAR-3) was > 100 µM (inactive) and the GI50 (OVCAR-4) was > 100 µM (inactive). The GI50 (OVCAR-5) was > 100 µM (inactive), the GI50 (OVCAR-8) was > 100 µM (inactive) and the GI50 (PC-3) was > 100 µM (inactive). The GI50 (RPMI-8226) was > 100 µM (inactive), the GI50 (RXF 393) was > 100 µM (inactive) and the GI50 (SF-268) was > 100 µM (inactive). For the same molecule, the GI50 (SF-539) was > 100 µM (inactive), the GI50 (SK-MEL-28) was > 100 µM (inactive) and the GI50 (SK-MEL-2) was > 100 µM (inactive). For the same molecule, the GI50 (SK-MEL-5) was > 100 µM (inactive), the GI50 (SK-OV-3) was > 100 µM (inactive) and the GI50 (SN12C) was > 100 µM (inactive). For the same molecule, the GI50 (SNB-19) was > 100 µM (inactive), the GI50 (SNB-75) was > 100 µM (inactive) and the GI50 (SR) was > 100 µM (inactive). The GI50 (SW-620) was > 100 µM (inactive), the GI50 (T47D) was > 100 µM (inactive) and the GI50 (TK-10) was > 100 µM (inactive). The GI50 (U-251) was > 100 µM (inactive), the GI50 (UACC-257) was > 100 µM (inactive) and the GI50 (UACC-62) was > 100 µM (inactive). The GI50 (UO-31) was > 100 µM (inactive).
For CC(=O)Nc1c(S(=O)(=O)c2ccccc2)c(C)c(C)n1CCN(C)C, the GI50 (786-0) was > 100 µM (inactive), the GI50 (A498) was > 100 µM (inactive) and the GI50 (A549) was > 100 µM (inactive). The GI50 (ACHN) was > 100 µM (inactive), the GI50 (BT-549) was > 100 µM (inactive) and the GI50 (CAKI-1) was > 100 µM (inactive). The GI50 (CCRF-CEM) was > 100 µM (inactive), the GI50 (COLO 205) was > 100 µM (inactive) and the GI50 (DU-145) was > 100 µM (inactive). For the same molecule, the GI50 (EKVX) was > 100 µM (inactive), the GI50 (HCC 2998) was > 100 µM (inactive) and the GI50 (HCT-116) was > 100 µM (inactive). For the same molecule, the GI50 (HCT-15) was > 100 µM, the GI50 (HL-60) was > 100 µM (inactive) and the GI50 (HOP-92) was > 100 µM (inactive). For the same molecule, the GI50 (HT-29) was > 100 µM (inactive), the GI50 (Hs-578T) was > 100 µM (inactive) and the GI50 (IGROV-1) was > 100 µM (inactive). The GI50 (K562) was > 100 µM (inactive), the GI50 (KM12) was > 100 µM (inactive) and the GI50 (M14) was 70.3 µM (inactive). The GI50 (MCF7) was > 100 µM (inactive), the GI50 (MDA-MB-231) was > 100 µM (inactive) and the GI50 (MDA-MB-435) was > 100 µM (inactive). For the same molecule, the GI50 (MDA-N) was > 100 µM (inactive), the GI50 (MOLT-4) was > 100 µM (inactive) and the GI50 (Malme-3M) was > 100 µM (inactive). The GI50 (NCI-H226) was > 100 µM (inactive), the GI50 (NCI-H23) was > 100 µM (inactive) and the GI50 (NCI-H460) was > 100 µM (inactive). The GI50 (NCI-H522) was > 100 µM (inactive), the GI50 (NCI/ADR-RES) was > 100 µM (inactive) and the GI50 (OVCAR-3) was > 100 µM (inactive). The GI50 (OVCAR-4) was > 100 µM (inactive), the GI50 (OVCAR-5) was > 100 µM (inactive) and the GI50 (OVCAR-8) was > 100 µM (inactive). The GI50 (PC-3) was > 100 µM (inactive), the GI50 (RPMI-8226) was > 100 µM (inactive) and the GI50 (RXF 393) was > 100 µM (inactive). For the same molecule, the GI50 (SF-268) was > 100 µM (inactive), the GI50 (SF-295) was > 100 µM (inactive) and the GI50 (SF-539) was > 100 µM (inactive). For the same molecule, the GI50 (SK-MEL-28) was > 100 µM (inactive), the GI50 (SK-MEL-2) was > 100 µM (inactive) and the GI50 (SK-MEL-5) was > 100 µM (inactive). The GI50 (SK-OV-3) was > 100 µM (inactive), the GI50 (SN12C) was > 100 µM (inactive) and the GI50 (SNB-19) was > 100 µM (inactive). For the same molecule, the GI50 (SNB-75) was > 100 µM (inactive), the GI50 (SR) was > 100 µM (inactive) and the GI50 (SW-620) was > 100 µM (inactive). The GI50 (T47D) was > 100 µM (inactive), the GI50 (TK-10) was > 100 µM (inactive) and the GI50 (U-251) was > 100 µM (inactive). The GI50 (UACC-257) was > 100 µM (inactive), the GI50 (UACC-62) was > 100 µM (inactive) and the GI50 (UO-31) was > 100 µM (inactive).
